How the values were obtained:
[1] = target: T1, Muscarinic acetylcholine receptor M2 (Homo sapiens, UniProt P08172); assay: Binding affinity against human muscarinic acetylcholine receptor M2 in transfected CHO cells; assay type: cell-based
T1 sequence (P08172 whole entry): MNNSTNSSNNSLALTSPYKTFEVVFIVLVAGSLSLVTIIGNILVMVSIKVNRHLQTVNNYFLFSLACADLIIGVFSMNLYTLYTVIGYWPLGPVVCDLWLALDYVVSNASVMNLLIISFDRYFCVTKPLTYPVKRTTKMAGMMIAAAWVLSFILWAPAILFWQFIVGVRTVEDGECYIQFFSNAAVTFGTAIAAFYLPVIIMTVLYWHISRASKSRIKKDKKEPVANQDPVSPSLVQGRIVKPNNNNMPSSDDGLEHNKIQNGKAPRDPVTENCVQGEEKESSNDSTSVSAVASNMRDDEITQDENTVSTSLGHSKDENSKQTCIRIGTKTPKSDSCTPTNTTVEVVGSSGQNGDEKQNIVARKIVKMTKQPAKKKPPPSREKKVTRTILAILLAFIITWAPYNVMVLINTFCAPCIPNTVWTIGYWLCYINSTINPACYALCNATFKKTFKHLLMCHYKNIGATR

[2] = target: Muscarinic acetylcholine receptor M3 (Homo sapiens, UniProt P20309); assay: Binding affinity against human muscarinic acetylcholine receptor M3 in transfected CHO cells; assay type: cell-based
Chain of Muscarinic acetylcholine receptor M3 (P20309 whole entry): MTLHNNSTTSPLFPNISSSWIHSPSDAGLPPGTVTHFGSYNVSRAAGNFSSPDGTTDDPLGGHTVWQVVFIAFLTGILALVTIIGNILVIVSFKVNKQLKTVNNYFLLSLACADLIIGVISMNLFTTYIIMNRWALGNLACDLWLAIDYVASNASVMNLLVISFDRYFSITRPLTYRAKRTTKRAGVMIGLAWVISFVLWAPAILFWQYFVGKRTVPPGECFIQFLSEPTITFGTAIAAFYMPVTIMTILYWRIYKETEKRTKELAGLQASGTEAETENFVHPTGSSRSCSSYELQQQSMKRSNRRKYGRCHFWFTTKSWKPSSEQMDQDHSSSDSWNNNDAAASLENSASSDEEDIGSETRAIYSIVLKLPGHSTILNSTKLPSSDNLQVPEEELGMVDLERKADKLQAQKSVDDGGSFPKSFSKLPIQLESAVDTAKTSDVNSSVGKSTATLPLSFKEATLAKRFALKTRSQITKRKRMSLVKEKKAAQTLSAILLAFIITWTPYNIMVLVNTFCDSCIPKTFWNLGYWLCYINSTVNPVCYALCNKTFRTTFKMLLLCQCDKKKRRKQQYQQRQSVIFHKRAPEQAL

[3] = target: T2, Muscarinic acetylcholine receptor M1 (Homo sapiens, UniProt P11229); assay: Binding affinity against human Muscarinic acetylcholine receptor M1 in transfected CHO cells; assay type: cell-based
T2 sequence (P11229 whole entry): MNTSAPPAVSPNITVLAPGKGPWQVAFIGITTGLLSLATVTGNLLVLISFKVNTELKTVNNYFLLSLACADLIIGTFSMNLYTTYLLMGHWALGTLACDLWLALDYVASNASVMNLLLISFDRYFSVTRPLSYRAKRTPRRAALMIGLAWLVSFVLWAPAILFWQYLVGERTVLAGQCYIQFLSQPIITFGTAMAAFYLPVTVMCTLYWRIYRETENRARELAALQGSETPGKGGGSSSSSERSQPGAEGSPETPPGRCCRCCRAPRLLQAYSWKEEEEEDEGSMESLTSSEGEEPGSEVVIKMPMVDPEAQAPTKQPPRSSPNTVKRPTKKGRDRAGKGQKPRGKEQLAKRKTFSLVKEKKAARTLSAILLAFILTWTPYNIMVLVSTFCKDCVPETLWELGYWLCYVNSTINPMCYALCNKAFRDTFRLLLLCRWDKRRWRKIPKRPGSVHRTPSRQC

[4] = Area under curve was determined after 0.1 mg/kg iv administration in dog; assay type: ADME, organism-based, Canis lupus familiaris; set-up: dose 0.1 mg/kg, route intravenous; conditions: in vivo
[5] = In vitro metabolic stability determined after 30 min of incubation in dog hepatic microsomes; assay type: ADME, Canis lupus familiaris; conditions: liver microsomes, read-out: Metabolic stability
[6] = Total clearance was determined after 0.1 mg/kg iv administration in dog; assay type: ADME, organism-based, Canis lupus familiaris; set-up: dose 0.1 mg/kg, route intravenous; conditions: in vivo, read-out: CLtotal
[7] = Oral bioavailability after 0.3 mg/kg po administration in dog; assay type: ADME, organism-based, Canis lupus familiaris; conditions: in vivo
[8] = Area under curve was determined after 0.3 mg/kg po administration in dog; assay type: ADME, organism-based, Canis lupus familiaris; set-up: dose 0.3 mg/kg, route oral; conditions: in vivo
[9] = Cmax after 0.3 mg/kg po administration in dog; assay type: ADME, organism-based, Canis lupus familiaris; set-up: dose 0.3 mg/kg, route oral; conditions: in vivo
[10] = In vitro metabolic stability determined after 30 min of incubation in rat hepatic microsomes; assay type: ADME; conditions: liver microsomes, read-out: Metabolic stability
[11] = In vitro metabolic stability determined after 30 min of incubation in human hepatic microsomes; assay type: ADME; conditions: liver microsomes, read-out: Metabolic stability
[12] = Half-life of the compound after 0.3 mg/kg po administration in dog; assay type: ADME, organism-based, Canis lupus familiaris; set-up: dose 0.3 mg/kg, route oral; conditions: in vivo
[13] = Vdss was determined after iv 0.1 mg/kg administration in dog; assay type: ADME, organism-based, Canis lupus familiaris; set-up: dose 0.1 mg/kg, route intravenous; conditions: in vivo, read-out: Vdss

Compound | Ki [1] | Ki [2] | Ki [3] | further results
NCCCCC1CCN(C(=O)[C@](O)(c2ccccc2)[C@@H]2CCC(F)(F)C2)CC1 | 4200 nM | 76 nM | 140 nM | –
NCc1cccc(NC(=O)[C@](O)(c2ccccc2)[C@@H]2CCC(F)(F)C2)c1 | 2900 nM | 93 nM | 210 nM | –
NCc1ccc(NC(=O)[C@](O)(c2ccccc2)[C@@H]2CCC(F)(F)C2)cc1 | 5300 nM | 650 nM | 740 nM | –
CC1(CCN)CCN(C(=O)[C@](O)(c2ccccc2)[C@@H]2CCC(F)(F)C2)CC1 | 210 nM | 3.3 nM | 1.5 nM | –
NCC1CCN(C(=O)[C@](O)(c2ccccc2)[C@@H]2CCC(F)(F)C2)C1 (stereo not given in full) | 130 nM | 2.9 nM | 2.1 nM | –
O=C(NCC1CCNCC1)[C@](O)(c1ccccc1)[C@@H]1CCC(F)(F)C1 | 2200 nM | 17 nM | 23 nM | –
O=C(Nc1ccc2c(c1)CNC2)[C@](O)(c1ccccc1)[C@@H]1CCC(F)(F)C1 | 15000 nM | 290 nM | 630 nM | –
NCCC1CCN(C(=O)[C@](O)(c2ccccc2)[C@@H]2CCC(F)(F)C2)CC1 | – | – | 6.6 nM | AUC [4]: 150 ng·h/mL; remaining at 0.5 h [5]: 100%; clearance [6]: 13 mL/min/kg; bioavailability [7]: 98%; AUC [8]: 440 ng·h/mL; Cmax [9]: 43 ng/mL; remaining at 0.5 h [10]: 100%; remaining at 0.5 h [11]: 82%; half-life [12]: 6.9 h; Vd [13]: 9.4 L/kg
O=C(N1CCCNCC1)[C@](O)(c1ccccc1)[C@@H]1CCC(F)(F)C1 | 1100 nM | 17 nM | 14 nM | –
CCC1(CCN)CCN(C(=O)[C@](O)(c2ccccc2)[C@@H]2CCC(F)(F)C2)CC1 | 300 nM | 7 nM | 1 nM | –
NCC1CCN(C(=O)[C@](O)(c2ccccc2)[C@@H]2CCC(F)(F)C2)CC1 | 760 nM | 11 nM | 11 nM | remaining at 0.5 h [5]: 100%; remaining at 0.5 h [10]: 98%; remaining at 0.5 h [11]: 100%
NCC1CCN(C(=O)[C@](O)(c2ccccc2)C2CCCC2)CC1 | 28 nM | 1.7 nM | 1.8 nM | remaining at 0.5 h [5]: 100%; remaining at 0.5 h [10]: 72%; remaining at 0.5 h [11]: 91%
NCCCC1CCN(C(=O)[C@](O)(c2ccccc2)[C@@H]2CCC(F)(F)C2)CC1 | 2800 nM | 47 nM | 92 nM | –
O=C(N1CCNCC1)[C@](O)(c1ccccc1)[C@@H]1CCC(F)(F)C1 | 1200 nM | 50 nM | 30 nM | –
O=C(NCCC1CCNCC1)[C@](O)(c1ccccc1)[C@@H]1CCC(F)(F)C1 | 3900 nM | 89 nM | 140 nM | –
NCC=C1CCN(C(=O)[C@](O)(c2ccccc2)[C@@H]2CCC(F)(F)C2)CC1 | 55 nM | 1.2 nM | 1.3 nM | –
NC1CCN(C(=O)[C@](O)(c2ccccc2)[C@@H]2CCC(F)(F)C2)CC1 | 240 nM | 5.1 nM | 3 nM | remaining at 0.5 h [5]: 88%; remaining at 0.5 h [10]: 100%; remaining at 0.5 h [11]: 86%
CC1(N)CCN(C(=O)[C@](O)(c2ccccc2)[C@@H]2CCC(F)(F)C2)CC1 | 640 nM | 8.3 nM | 4.7 nM | –
O=C(NC1CCNCC1)[C@](O)(c1ccccc1)[C@@H]1CCC(F)(F)C1 | 15000 nM | 320 nM | 310 nM | –
NCC(=O)N1CCN(C(=O)[C@](O)(c2ccccc2)[C@@H]2CCC(F)(F)C2)CC1 | 300 nM | 16 nM | 21 nM | –
NCCN1CCN(C(=O)[C@](O)(c2ccccc2)[C@@H]2CCC(F)(F)C2)CC1 | 820 nM | 9.6 nM | 11 nM | –
NCCC1CCN(C(=O)[C@](O)(c2ccccc2)C2CCCC2)CC1 | 41 nM | 1.1 nM | 2.1 nM | remaining at 0.5 h [5]: 84%; remaining at 0.5 h [10]: 77%; remaining at 0.5 h [11]: 86%
Nc1cccc(CN2CCC(NC(=O)[C@](O)(c3ccccc3)[C@@H]3CCC(F)(F)C3)CC2)n1 | – | – | – | remaining at 0.5 h [5]: 84%; remaining at 0.5 h [10]: 46%; remaining at 0.5 h [11]: 80%
CN(C)CCC1CCN(C(=O)[C@](O)(c2ccccc2)[C@@H]2CCC(F)(F)C2)CC1 | 15000 nM | 930 nM | 760 nM | –
O=C(N1CCC(CCN2CCCCC2)CC1)[C@](O)(c1ccccc1)[C@@H]1CCC(F)(F)C1 | 36000 nM | 2400 nM | 1900 nM | –
NC1CCN(C(=O)[C@](O)(c2ccccc2)C2CCCC2)CC1 | 11 nM | 1.4 nM | 0.98 nM | remaining at 0.5 h [5]: 89%; remaining at 0.5 h [10]: 40%; remaining at 0.5 h [11]: 92%
CC(C)(N)CC1CCN(C(=O)[C@](O)(c2ccccc2)[C@@H]2CCC(F)(F)C2)CC1 | 1000 nM | 26 nM | 37 nM | –
NCC1CCC(NC(=O)[C@](O)(c2ccccc2)[C@@H]2CCC(F)(F)C2)CC1 (stereo not given in full) | 6800 nM | 100 nM | 55 nM | –
CNCCC1CCN(C(=O)[C@](O)(c2ccccc2)[C@@H]2CCC(F)(F)C2)CC1 | 5400 nM | 120 nM | 140 nM | –

Reference: ChEMBL document CHEMBL1136082, “Muscarinic M(3) receptor antagonists with (2R)-2-[(1R)-3,3-difluorocyclopentyl]-2-hydroxyphenylacetamide Structures. Part 2” (Bioorg Med Chem Lett, 2003)
